# Results published in the supplement of paper PMC10307832.
# How the values were obtained:
# Test in all cases: relative viability (nuclei count vs DMSO), 5 days (fraction); higher = more cells survive
# A-427 = system: A-427
# Procedure, shortened: (§1)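 Relative viability is defined as nuclei in treated wells over nuclei in vehicle wells. Duplicate plates were run and medians reported. Lung cancer cell lines in 1536-well plates were dosed by pin tool one day after seeding, with one drug or with a fixed anchor-drug dose plus five library-drug doses (not always all listed) in √10 steps, and nuclei were counted after 5 days.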
# H3255 = system: H3255
# Procedure, shortened: as §1
# HARA = system: HARA
# Procedure, shortened: as §1
# HCC-15 = system: HCC-15
# Procedure, shortened: as §1
# HCC-366 = system: HCC-366
# Procedure, shortened: as §1
# LXF-289 = system: LXF-289
# Procedure, shortened: as §1
# NCI-H1437 = system: NCI-H1437
# Procedure, shortened: as §1
# NCI-H1755 = system: NCI-H1755
# Procedure, shortened: as §1
# NCI-H1793 = system: NCI-H1793
# Procedure, shortened: as §1
# NCI-H1915 = system: NCI-H1915
# Procedure, shortened: as §1
# NCI-H1975 = system: NCI-H1975
# Procedure, shortened: as §1
# NCI-H2009 = system: NCI-H2009
# Procedure, shortened: as §1
# NCI-H2023 = system: NCI-H2023
# Procedure, shortened: as §1
# NCI-H2405 = system: NCI-H2405
# Procedure, shortened: as §1
# NCI-H3122 = system: NCI-H3122
# Procedure, shortened: as §1
# NCI-H441 = system: NCI-H441
# Procedure, shortened: as §1
# NCI-H460 = system: NCI-H460
# Procedure, shortened: as §1
# NCI-H596 = system: NCI-H596
# Procedure, shortened: as §1
# NCI-H650 = system: NCI-H650
# Procedure, shortened: as §1
# PC-14 = system: PC-14
# Procedure, shortened: as §1
# PC-3 [JPC-3] = system: PC-3 [JPC-3]
# Procedure, shortened: as §1
# SK-LU-1 = system: SK-LU-1
# Procedure, shortened: as §1
# UMC-11 = system: UMC-11
# Procedure, shortened: as §1
smiles,measurement,setting,value
Cc1cnc(-c2cnc(NCCNc3ccc(C#N)cn3)nc2-c2ccc(Cl)cc2Cl)[nH]1 + COc1cc2c(Oc3ccc(NC(=O)C4(C(=O)Nc5ccc(F)cc5)CC4)cc3F)ccnc2cc1OCCCN1CCOCC1 [Foretinib] (partner 0.25 µM),relative viability,A-427; first compound 0.08 µM,1.13
same,relative viability,A-427; first compound 0.253 µM,1.01
same,relative viability,A-427; first compound 0.8 µM,0.861
same,relative viability,A-427; first compound 2.53 µM,1.07
same,relative viability,H3255; first compound 0.08 µM,0.956
same,relative viability,H3255; first compound 0.253 µM,0.696
same,relative viability,H3255; first compound 0.8 µM,0.988
same,relative viability,H3255; first compound 2.53 µM,0.841
same,relative viability,HARA; first compound 0.08 µM,1
same,relative viability,HARA; first compound 0.253 µM,0.773
same,relative viability,HARA; first compound 0.8 µM,0.818
same,relative viability,HARA; first compound 2.53 µM,0.877
same,relative viability,HCC-15; first compound 0.08 µM,1.12
same,relative viability,HCC-15; first compound 0.253 µM,0.895
same,relative viability,HCC-15; first compound 0.8 µM,1.02
same,relative viability,HCC-15; first compound 2.53 µM,0.941
same,relative viability,HCC-366; first compound 0.08 µM,1.01
same,relative viability,HCC-366; first compound 0.253 µM,0.964
same,relative viability,HCC-366; first compound 0.8 µM,0.892
same,relative viability,HCC-366; first compound 2.53 µM,0.922
same,relative viability,LXF-289; first compound 0.08 µM,1.03
same,relative viability,LXF-289; first compound 0.253 µM,0.858
same,relative viability,LXF-289; first compound 0.8 µM,0.994
same,relative viability,LXF-289; first compound 2.53 µM,1.02
same,relative viability,NCI-H1437; first compound 0.08 µM,1.18
same,relative viability,NCI-H1437; first compound 0.253 µM,1.25
same,relative viability,NCI-H1437; first compound 0.8 µM,1.24
same,relative viability,NCI-H1437; first compound 2.53 µM,1.25
same,relative viability,NCI-H1755; first compound 0.08 µM,0.936
same,relative viability,NCI-H1755; first compound 0.253 µM,0.808
same,relative viability,NCI-H1755; first compound 0.8 µM,0.982
same,relative viability,NCI-H1755; first compound 2.53 µM,0.972
same,relative viability,NCI-H1793; first compound 0.08 µM,0.807
same,relative viability,NCI-H1793; first compound 0.253 µM,0.545
same,relative viability,NCI-H1793; first compound 0.8 µM,0.684
same,relative viability,NCI-H1793; first compound 2.53 µM,0.723
same,relative viability,NCI-H1915; first compound 0.08 µM,1.11
same,relative viability,NCI-H1915; first compound 0.253 µM,0.844
same,relative viability,NCI-H1915; first compound 0.8 µM,1.1
same,relative viability,NCI-H1915; first compound 2.53 µM,1.07
same,relative viability,NCI-H1975; first compound 0.08 µM,0.928
same,relative viability,NCI-H1975; first compound 0.253 µM,0.911
same,relative viability,NCI-H1975; first compound 0.8 µM,0.771
same,relative viability,NCI-H1975; first compound 2.53 µM,0.573
same,relative viability,NCI-H2009; first compound 0.08 µM,1.27
same,relative viability,NCI-H2009; first compound 0.253 µM,1.21
same,relative viability,NCI-H2009; first compound 0.8 µM,1.35
same,relative viability,NCI-H2009; first compound 2.53 µM,1.03
same,relative viability,NCI-H2023; first compound 0.08 µM,0.709
same,relative viability,NCI-H2023; first compound 0.8 µM,0.938
same,relative viability,NCI-H2023; first compound 2.53 µM,1.18
same,relative viability,NCI-H2405; first compound 0.08 µM,1.04
same,relative viability,NCI-H2405; first compound 0.253 µM,0.974
same,relative viability,NCI-H2405; first compound 0.8 µM,1.05
same,relative viability,NCI-H2405; first compound 2.53 µM,0.845
same,relative viability,NCI-H3122; first compound 0.08 µM,0.943
same,relative viability,NCI-H3122; first compound 0.8 µM,0.935
same,relative viability,NCI-H3122; first compound 2.53 µM,0.914
same,relative viability,NCI-H441; first compound 0.08 µM,1.2
same,relative viability,NCI-H441; first compound 0.253 µM,0.926
same,relative viability,NCI-H441; first compound 0.8 µM,1.01
same,relative viability,NCI-H441; first compound 2.53 µM,0.958
same,relative viability,NCI-H460; first compound 0.08 µM,1.1
same,relative viability,NCI-H460; first compound 0.253 µM,0.947
same,relative viability,NCI-H460; first compound 0.8 µM,0.981
same,relative viability,NCI-H460; first compound 2.53 µM,0.885
same,relative viability,NCI-H596; first compound 0.08 µM,0.929
same,relative viability,NCI-H596; first compound 0.253 µM,0.776
same,relative viability,NCI-H596; first compound 0.8 µM,0.872
same,relative viability,NCI-H596; first compound 2.53 µM,0.827
same,relative viability,NCI-H650; first compound 0.08 µM,1.07
same,relative viability,NCI-H650; first compound 0.253 µM,0.994
same,relative viability,NCI-H650; first compound 0.8 µM,1.09
same,relative viability,NCI-H650; first compound 2.53 µM,1.03
same,relative viability,PC-14; first compound 0.08 µM,0.978
same,relative viability,PC-14; first compound 0.253 µM,0.852
same,relative viability,PC-14; first compound 0.8 µM,0.941
same,relative viability,PC-14; first compound 2.53 µM,0.894
same,relative viability,PC-3 [JPC-3]; first compound 0.08 µM,0.978
same,relative viability,PC-3 [JPC-3]; first compound 0.253 µM,0.926
same,relative viability,PC-3 [JPC-3]; first compound 0.8 µM,1.03
same,relative viability,PC-3 [JPC-3]; first compound 2.53 µM,1.03
same,relative viability,SK-LU-1; first compound 0.08 µM,0.865
same,relative viability,SK-LU-1; first compound 0.253 µM,0.833
same,relative viability,SK-LU-1; first compound 0.8 µM,0.983
same,relative viability,SK-LU-1; first compound 2.53 µM,1.03
same,relative viability,UMC-11; first compound 0.08 µM,0.986
same,relative viability,UMC-11; first compound 0.253 µM,0.999
same,relative viability,UMC-11; first compound 0.8 µM,1.11
same,relative viability,UMC-11; first compound 2.53 µM,1
